Results: ChEMBL document CHEMBL3611985, “Synthesis and structure-activity relationships of novel 9-oxime acylides with improved bactericidal activity” (2015)
≈ marks a conversion by molar mass, not a printed value.

Columns and labels:
Format in all cases: functional
Streptococcus pneumoniae [1] = assay: Antimicrobial activity against erythromycin-susceptible Streptococcus pneumoniae ATCC 49619 incubated for 20 to 24 hrs by two-fold microbroth dilution method
Staphylococcus aureus [2] = assay: Antimicrobial activity against methicillin-resistant Staphylococcus aureus PU20 expressing constitutive ermC incubated for 20 hrs by two-fold microbroth dilution method; conditions: PU20, 20 h
Staphylococcus aureus [3] = assay: Antimicrobial activity against methicillin-resistant Staphylococcus aureus PU32 expressing inducible ermA incubated for 20 hrs by two-fold microbroth dilution method; conditions: PU32, 20 h
Streptococcus pneumoniae [4] = assay: Antimicrobial activity against Streptococcus pneumoniae 07P390 expressing constitutive ermB incubated for 20 to 24 hrs by two-fold microbroth dilution method
Streptococcus pyogenes [5] = assay: Antimicrobial activity against Streptococcus pyogenes 01-968 expressing inducible ermA incubated for 20 to 24 hrs by two-fold microbroth dilution method
Streptococcus pneumoniae [6] = assay: Antimicrobial activity against penicillin-susceptible Streptococcus pneumoniae PU09 incubated for 20 to 24 hrs by two-fold microbroth dilution method
Haemophilus influenzae [7] = assay: Antimicrobial activity against azithromycin-susceptible and ampicillin-resistant Haemophilus influenzae 11P037 incubated for 20 to 24 hrs by two-fold microbroth dilution method
Haemophilus influenzae [8] = assay: Bactericidal activity against azithromycin-susceptible and ampicillin-resistant Haemophilus influenzae 11P037 incubated for 20 to 24 hrs followed by sub-culturing for 24 hrs in absence of compound
Staphylococcus aureus [9] = assay: Bactericidal activity against methicillin-resistant Staphylococcus aureus PU32 expressing inducible ermA incubated for 20 hrs followed by sub-culturing for 24 hrs in absence of compound
Streptococcus pyogenes [10] = assay: Bactericidal activity against Streptococcus pyogenes 12-207 expressing mef incubated for 20 to 24 hrs followed by sub-culturing for 24 hrs in absence of compound
Streptococcus pyogenes [11] = assay: Ratio of MBC to MIC against Streptococcus pyogenes 12-207 expressing mef
Moraxella catarrhalis [12] = assay: Antimicrobial activity against erythromycin-susceptible Moraxella catarrhalis 11B366 incubated for 20 hrs by two-fold microbroth dilution method; conditions: 11B366, 20 h
Haemophilus influenzae [13] = assay: Ratio of MBC to MIC against azithromycin-susceptible and ampicillin-resistant Haemophilus influenzae 11P037
Moraxella catarrhalis [14] = assay: Ratio of MBC to MIC against erythromycin-susceptible Moraxella catarrhalis 11B366
Streptococcus pyogenes [15] = assay: Antimicrobial activity against Streptococcus pyogenes 12-207 expressing mef incubated for 20 to 24 hrs by two-fold microbroth dilution method
Staphylococcus aureus [16] = assay: Ratio of MBC to MIC against methicillin-resistant Staphylococcus aureus PU32 expressing inducible ermA
Streptococcus pyogenes [17] = assay: Bactericidal activity against Streptococcus pyogenes 01-968 expressing inducible ermA incubated for 20 to 24 hrs followed by sub-culturing for 24 hrs in absence of compound
Moraxella catarrhalis [18] = assay: Bactericidal activity against erythromycin-susceptible Moraxella catarrhalis 11B366 incubated for 20 hrs followed by sub-culturing for 24 hrs in absence of compound
Streptococcus pyogenes [19] = assay: Ratio of MBC to MIC against Streptococcus pyogenes 01-968 expressing inducible ermA

Structure (SMILES) | MIC (Streptococcus pneumoniae [1]) [µg/mL] | MIC (Staphylococcus aureus [2]) [µg/mL] | MIC (Staphylococcus aureus [3]) [µg/mL] | MIC (Streptococcus pneumoniae [4]) [µg/mL] | MIC (Streptococcus pyogenes [5]) [µg/mL] | MIC (Streptococcus pneumoniae [6]) [µg/mL] | MIC (Haemophilus influenzae [7]) [µg/mL] | MBC (Haemophilus influenzae [8]) [µg/mL] | MBC (Staphylococcus aureus [9]) [µg/mL] | MBC (Streptococcus pyogenes [10]) [µg/mL] | Ratio (Streptococcus pyogenes [11]) | MIC (Moraxella catarrhalis [12]) [µg/mL] | Ratio (Haemophilus influenzae [13]) | Ratio (Moraxella catarrhalis [14]) | MIC (Streptococcus pyogenes [15]) [µg/mL] | Ratio (Staphylococcus aureus [16]) | MBC (Streptococcus pyogenes [17]) [µg/mL] | MBC (Moraxella catarrhalis [18]) [µg/mL] | Ratio (Streptococcus pyogenes [19])
CC[C@H]1OC(=O)[C@H](C)[C@@H](OC(=O)Cc2ccccn2)[C@H](C)[C@@H](O[C@@H]2O[C@H](C)C[C@H](N(C)C)[C@H]2O)[C@](C)(OC)C[C@@H](C)/C(=N\OCC#Cc2ccc([N+](=O)[O-])nc2)[C@H](C)[C@H]2OC(=O)O[C@@]21C | 0.031 (≈ 0.0341 µM) | > 64 | 0.25 (≈ 0.275 µM) | 1 (≈ 1.1 µM) | 0.5 (≈ 0.549 µM) | 0.5 (≈ 0.549 µM) | > 64 |  |  |  |  |  |  |  |  |  |  |  | 
CC[C@H]1OC(=O)[C@H](C)[C@@H](OC(=O)Cc2ccccn2)[C@H](C)[C@@H](O[C@@H]2O[C@H](C)C[C@H](N(C)C)[C@H]2O)[C@](C)(OC)C[C@@H](C)/C(=N\OCCCc2cncc(NC(=O)Cc3ccccn3)c2)[C@H](C)[C@H]2OC(=O)O[C@@]21C | 0.125 (≈ 0.125 µM) | > 64 | 4 (≈ 3.99 µM) | 4 (≈ 3.99 µM) | 8 (≈ 7.97 µM) | 4 (≈ 3.99 µM) | > 64 |  |  |  |  |  |  |  |  |  |  |  | 
CC[C@H]1OC(=O)[C@H](C)[C@@H](OC(=O)Cc2ccccn2)[C@H](C)[C@@H](O[C@@H]2O[C@H](C)C[C@H](N(C)C)[C@H]2O)[C@](C)(OC)C[C@@H](C)/C(=N\OC/C=C/c2ccc(N)nc2)[C@H](C)[C@H]2OC(=O)O[C@@]21C | 0.031 (≈ 0.0351 µM) | > 64 | 0.5 (≈ 0.567 µM) | 1 (≈ 1.13 µM) | 4 (≈ 4.53 µM) | 1 (≈ 1.13 µM) | 32 (≈ 36.3 µM) |  |  |  |  |  |  |  |  |  |  |  | 
CC[C@H]1OC(=O)[C@H](C)C(=O)[C@H](C)[C@@H](O[C@@H]2O[C@H](C)C[C@H](N(C)C)[C@H]2O)[C@](C)(OC)C[C@@H](C)C(=O)[C@H](C)[C@H]2N(CCCCn3cnc(-c4cccnc4)c3)C(=O)O[C@]12C [TELITHROMYCIN] | 0.031 (≈ 0.0382 µM) | > 64 | 0.25 (≈ 0.308 µM) | 0.062 (≈ 0.0764 µM) | 2 (≈ 2.46 µM) | 0.25 (≈ 0.308 µM) | 2 (≈ 2.46 µM) | 4 (≈ 4.93 µM) | > 1 | 1 (≈ 1.23 µM) | 2 | 0.25 (≈ 0.308 µM) | 4 | 1 | 0.5 (≈ 0.616 µM) | >8 | 0.125 (≈ 0.154 µM) | 0.25 (≈ 0.308 µM) | 
CC[C@H]1OC(=O)[C@H](C)[C@@H](O[C@H]2C[C@@](C)(OC)[C@@H](O)[C@H](C)O2)[C@H](C)[C@@H](O[C@@H]2O[C@H](C)C[C@H](N(C)C)[C@H]2O)[C@](C)(OC)C[C@@H](C)C(=O)[C@H](C)[C@@H](O)[C@]1(C)O [CLARITHROMYCIN] | 0.062 (≈ 0.0829 µM) | > 64 | 32 (≈ 42.8 µM) | > 64 | 4 (≈ 5.35 µM) | 2 (≈ 2.67 µM) | 4 (≈ 5.35 µM) | 8 (≈ 10.7 µM) | > 16 | 32 (≈ 42.8 µM) | 2 | 0.125 (≈ 0.167 µM) | 8 | 2 | 16 (≈ 21.4 µM) | >2 | > 8 | 0.25 (≈ 0.334 µM) | >8
CC[C@H]1OC(=O)[C@H](C)[C@@H](OC(=O)Cc2ccccn2)[C@H](C)[C@@H](O[C@@H]2O[C@H](C)C[C@H](N(C)C)[C@H]2O)[C@](C)(OC)C[C@@H](C)/C(=N\OCC#Cc2ccc(NC(=O)Cc3ccccn3)nc2)[C@H](C)[C@H]2OC(=O)O[C@@]21C | 0.062 (≈ 0.0621 µM) | > 64 | 4 (≈ 4 µM) | 1 (≈ 1 µM) | 4 (≈ 4 µM) | 1 (≈ 1 µM) | > 64 |  |  |  |  |  |  |  |  |  |  |  | 
CC[C@H]1OC(=O)[C@H](C)[C@@H](OC(=O)Cc2ccccn2)[C@H](C)[C@@H](O[C@@H]2O[C@H](C)C[C@H](N(C)C)[C@H]2O)[C@](C)(OC)C[C@@H](C)/C(=N\OCCCc2ccc(NC(=O)Cc3ccccn3)nc2)[C@H](C)[C@H]2OC(=O)O[C@@]21C | 0.125 (≈ 0.125 µM) | > 64 | 2 (≈ 1.99 µM) | 2 (≈ 1.99 µM) | 8 (≈ 7.97 µM) | 2 (≈ 1.99 µM) | > 64 |  |  |  |  |  |  |  |  |  |  |  | 
